Experimental findings from patent US20020028836A1, “Potassium channel openers” (priority 2000, published 2002) are described below.

Data set [1] concerns primary cultured guinea-pig urinary bladder (GPB) cells. Put plainly: Membrane hyperpolarization (MHP) assay, DiBAC(4)3 / FLIPR. The format is cell-based. Conditions: Cavia porcellus; for EC50: concentration that elicits 50% of the maximal response for the test sample; for Emax: maximal steady-state hyperpolarization, normalized to response with 10 μM P1075 (100%). The method in brief:
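Primary smooth-muscle cells from male guinea-pig bladder, grown to confluence, loaded 30 min at 37° C with 5 μM DiBAC(4)3 in HEPES buffer pH 7.4. Fluorescence drop on FLIPR followed 25 min after compound; steady-state hyperpolarization normalized to 10 μM P1075 (100%), EC50 from four-parameter fit of five concentrations.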

The subject of data set [2] is tissue strips obtained from Landrace pig bladders. Put plainly: Functional potassium channel opening activity in isolated bladder strips (field-stimulated twitch). As to conditions: for Index: ED50 for P1075 divided by ED50 for the test agonist in a given tissue, averaged; for EC50: amount of agent necessary to cause 50% of the agent's maximal response, read-out: ED50 (the source's name). The method in brief: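 Mucosa-free female Landrace pig bladder strips in Krebs Ringer bicarbonate (pH 7.4, 37° C., 0.004 mM propranolol), 1.0 g preload, field-stimulated at 0.05 Hz, 0.5 ms, 20 V for twitch. Cumulative concentration-response curves; maximal efficacy as % of P1075, ED50 fitted, potency index = P1075 ED50/test ED50 per tissue, averaged.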

The mark [3] stands for this setting: Sus scrofa, maximal efficacy relative to P1075, field stimulation 0.05 Hz, 0.5 ms, 20 volts.

SMILES strings stand for the structures. Where two headings read alike, the source gives them in different places.

As for `Cc1ccc(C(=O)NC(NC(=S)Nc2ccccc2C)C(F)(F)F)cc1` (stereo not shown) [Example 2, 4-methyl-N-{2,2,2-trifluoro-1-[(2-toluidinocarbothioyl)amino]ethyl}benzamide], the melting point fell in the range of 210 to 211 °C.

In the case of `Cc1ccc(C(=O)N[C@@H](COC(C)(C)C)NC(=S)Nc2cccc([N+](=O)[O-])c2)cc1` [Example 31, N-((1R)-2-(tert-butoxy)-1-{[(3-nitroanilino)carbothioyl]amino}ethyl)-4-methylbenzamide], the melting point lay in the range of 169 to 171 °C.

As for `N#CN=C(Nc1cccnc1)NC(NC(=O)c1ccccc1)C(Cl)(Cl)Cl` (stereo not shown) [Example 49, N-(2,2,2-trichloro-1-{[(cyanoimino)(3-pyridinylamino)methyl]amino}ethyl)benzamide], the EC50 worked out at 0.04 µM in data set [1] and 3 µM in data set [2] (Sus scrofa). The Emax in data set [1] was 92%; in data set [2] (setting [3]), 100%. In addition, the Index in data set [2] was found to be 0.031.

With `Cc1ccccc1C(=O)NC(NC(=NC#N)Nc1cccnc1)C(Cl)(Cl)Cl` (stereo not shown) [Example 50, 2-methyl-N-(2,2,2-trichloro-1-{[(cyanoimino)(3-pyridinylamino)methyl]amino}ethyl)benzamide], the EC50 was found to be 0.1 µM in data set [1] and 17 µM in data set [2] (Sus scrofa). Besides, the Emax is 92% in data set [1] and 90% in data set [2] (setting [3]). In addition, the Index in data set [2] stood at 0.007.

The compound `Cc1ccc(C(=O)NC(NC(=NC#N)Nc2cccc(F)c2)C(C)(C)C)cc1` (stereo not shown) [Example 53, N-(1-{[(cyanoimino)(3-fluoroanilino)methyl]amino}-2,2-dimethylpropyl)-4-methylbenzamide] returned a melting point of 193 to 194 °C.

`N#CN=C(Nc1cccnc1)NC(NC(=O)c1ccc(Cl)cc1)C1CC1` (stereo not shown) [Example 54, 4-chloro-N-[{[(cyanoimino)(3-pyridinylamino)methyl]amino}(cyclopropyl)methyl]benzamide] returned a melting point of 137 to 139 °C.

With `Cc1ccc(C(=O)NC(NC(=NC#N)Nc2ccc(Cl)nc2)C(C)(C)C)cc1` (stereo not shown) [Example 55, N-(1-{[[(6-chloro-3-pyridinyl)amino](cyanoimino)methyl]amino}-2,2-dimethylpropyl)-4-methylbenzamide], the melting point lay in the range of 194 to 196 °C.

With `N#CN=C(Nc1cccc(F)c1)NC(NC(=O)c1ccc(Cl)cc1)c1ccsc1` (stereo not shown) [Example 56, 4-chloro-N-[{[(cyanoimino)(3-fluoroanilino)methyl]amino}(3-thienyl)methyl]benzamide], the melting point lay in the range of 166 to 168 °C.

`CC(C)(C)C(NC(=O)c1ccc(Cl)cc1)NC(=NC#N)Nc1ccccc1F` (stereo not shown) [Example 69, 4-chloro-N-(1-{[(cyanoimino)(2-fluoroanilino)methyl]amino}-2,2-dimethylpropyl)benzamide] displayed a melting point of 208 to 209 °C.

Compound `CC(C)(C)C(NC(=O)c1ccc(Cl)cc1)NC(=NC#N)Nc1cccc(C(F)(F)F)c1` (stereo not shown) [Example 71, 4-chloro-N-[1-({(cyanoimino)[3-(trifluoromethyl)anilino]methyl}amino)-2,2-dimethylpropyl]benzamide] showed a melting point of 184 to 186 °C.

In the case of `CC(C)(C)C(NC(=O)c1ccc(Cl)cc1)NC(=NC#N)Nc1cc(F)cc(F)c1` (stereo not shown) [Example 72, 4-chloro-N-(1-{[(cyanoimino)(3,5-difluoroanilino)methyl]amino}-2,2-dimethylpropyl)benzamide], the melting point was in the range of 196 to 198 °C.

`CC(C)(C)C(NC(=O)c1ccc(Cl)cc1)NC(=NC#N)Nc1cc(F)ccc1F` (stereo not shown) [Example 73, 4-chloro-N-(1-{[(cyanoimino)(2,5-difluoroanilino)methyl]amino}-2,2-dimethylpropyl)benzamide]: the melting point was in the range of 196 to 198 °C.

`CC(C)(C)C(NC(=O)c1ccc(Cl)cc1)NC(=NC#N)Nc1c(F)cccc1F` (stereo not shown) [Example 74, 4-chloro-N-(1-{[(cyanoimino)(2,6-difluoroanilino)methyl]amino}-2,2-dimethylpropyl)benzamide]: the melting point is 211 to 213 °C.

In turn, `CC(C)(C)C(NC(=O)c1ccc(Cl)cc1)NC(=NC#N)Nc1cccc(Cl)c1` (stereo not shown) [Example 75, 4-chloro-N-(1-{[(cyanoimino)(3-chloroanilino)methyl]amino}-2,2-dimethylpropyl)benzamide] showed a melting point of 158 to 160 °C.

With `COc1cccc(NC(=NC#N)NC(NC(=O)c2ccc(Cl)cc2)C(C)(C)C)c1` (stereo not shown) [Example 76, 4-chloro-N-(1-{[(cyanoimino)(3-methoxyanilino)methyl]amino}-2,2-dimethylpropyl)benzamide], the melting point fell in the range of 173 to 175 °C.

For the compound `CC(C)(C)C(NC(=O)c1ccc(Cl)cc1)NC(=NC#N)NCc1ccccc1Cl` (stereo not shown) [Example 77, 4-chloro-N-(1-{[[(2-chlorobenzyl)amino](cyanoimino)methyl]amino}-2,2-dimethylpropyl)benzamide], the melting point fell in the range of 180 to 182 °C.

`CC(C)(C)C(NC(=O)c1ccc(Cl)cc1)NC(=NC#N)NCc1cccc(Cl)c1` (stereo not shown) [Example 78, 4-chloro-N-(1-{[[(3-chlorobenzyl)amino](cyanoimino)methyl]amino}-2,2-dimethylpropyl)benzamide] had a melting point of 178 to 180 °C.

For `C=CC(C)(C)CC(NC(=O)c1ccc(Cl)cc1)NC(=NC#N)Nc1cccnc1` (stereo not shown) [Example 92, 4-chloro-N-(1-{[(cyanoimino)(3-pyridinylamino)methyl]amino}-3,3-dimethyl-4-pentenyl)benzamide], the EC50 amounted to 0.25 µM in data set [1] and 1.8 µM in data set [2] (Sus scrofa). Moreover, the figures for the Emax in data set [1] and in data set [2] (setting [3]) were 71% and 76%, respectively. The compound also had an Index in data set [2] of 0.047.

For the compound `CC(C)(C)OC(=O)N1CCC[C@@H]1[C@@H](NC(=O)c1ccc(Cl)cc1)NC(=NC#N)Nc1cccnc1` [Example 98, Tert-butyl (2R)-2-((R)-[(4-chlorobenzoyl)amino]{[(cyanoimino)(3-pyridinylamino)methyl]amino}methyl)-1-pyrrolidinecarboxylate], the EC50 worked out at 1.1 µM in data set [1] and 33 µM in data set [2] (Sus scrofa). Besides, the maximal effect (Emax) in data set [1] was 62%; in data set [2] (setting [3]), 30%. Further, the Index in data set [2] stood at 0.004.

For the compound `CC(C)(C)C(NC(=O)c1ccc(I)cc1)NC(=NC#N)Nc1cccnc1` (stereo not shown) [Example 103, N-(1-{[(cyanoimino)(3-pyridinylamino)methyl]amino}-2,2-dimethylpropyl)-4-iodobenzamide], the EC50 turned out to be 0.05 µM in data set [1] and 2.4 µM in data set [2] (Sus scrofa). Moreover, the values for the maximal response (Emax) in data set [1] and in data set [2] (setting [3]) were 103% and 83%, respectively. Further, in data set [2], the Index is 0.450.

Take `CC(C)(C)C(NC(=O)c1ccc(Cl)cc1F)NC(=NC#N)Nc1cccnc1` (stereo not shown) [Example 106, 4-chloro-N-(1-{[(cyanoimino)(3-pyridinylamino)methyl]amino}-2,2-dimethylpropyl)-2-fluorobenzamide]: the EC50 in data set [1] worked out at 0.63 µM; in data set [2] (Sus scrofa), 12 µM. The maximal effect (Emax) in data set [1] was found to be 85%; in data set [2] (setting [3]), 69%. The Index in data set [2] turned out to be 0.010.

As to `CC(C)(C)C(NC(=O)c1ccc(Cl)cc1)NC(=N[N+](=O)[O-])Nc1cccnc1` (stereo not shown) [Example 123, 4-chloro-N-(1-{[(nitroimino)(3-pyridinylamino)methyl]amino}-2,2-dimethylpropyl)benzamide], the EC50 in data set [1] came to 0.85 µM; in data set [2] (Sus scrofa), 10 µM. The Emax in data set [1] came out at 90%; in data set [2] (setting [3]), 63%. In data set [2], the Index turned out to be 0.028.

In data set [1], `CC(C)(C)CC(NC(=O)c1ccc(Cl)cc1)NC(=N[N+](=O)[O-])Nc1cccnc1` (stereo not shown) [Example 124, 4-chloro-N-(1-{[(nitroimino)(3-pyridinylamino)methyl]amino}-3,3-dimethylbutyl)benzamide] returned an EC50 of 0.11 µM and a maximum response (Emax) of 98%. Besides, in data set [2], the Index amounted to 0.012 and the EC50 worked out at 9.3 µM. Further, the “Efficacy (% P1075)” value in data set [2] (maximal efficacy relative to P1075, field stimulation 0.05 Hz, 0.5 ms, 20 volts) worked out at 47 % P1075.

`C=CC(C)(C)CC(NC(=O)c1ccc(Cl)cc1)NC(=N[N+](=O)[O-])Nc1cccnc1` (stereo not shown) [Example 133, 4-chloro-N-(1-{[(nitroimino)(3-pyridinylamino)methyl]amino}-3,3-dimethyl-4-pentenyl)benzamide]: the EC50 in data set [1] worked out at 0.039 µM; in data set [2] (Sus scrofa), 8.4 µM. The Emax in data set [1] amounted to 106%; in data set [2] (setting [3]), 58%. In data set [2], this compound came in with an Index of 0.039.

With `O=C(NC(NC(=S)Nc1cccnc1)C(Cl)(Cl)Cl)c1ccc(I)cc1` (stereo not shown) [Example 148, 4-iodo-N-(2,2,2-trichloro-1-{[(3-pyridinylamino)carbothioyl]amino}ethyl)benzamide], the EC50 turned out to be 0.096 µM in data set [1] and 1.1 µM in data set [2] (Sus scrofa). Moreover, the Emax stood at 61% in data set [1] and 78% in data set [2] (setting [3]). This compound had an Index in data set [2] of 0.082.

With `O=C(CCc1ccccc1)NC(NC(=S)Nc1cccc([N+](=O)[O-])c1)C(Cl)(Cl)Cl` (stereo not shown) [Example 149, 3-phenyl-N-(2,2,2-trichloro-1-{[(3-nitroanilino)carbothioyl]amino}ethyl)propanamide], the EC50 came out at 0.084 µM in data set [1] and 2.4 µM in data set [2] (Sus scrofa). For the same compound, the values for the Emax in data set [1] and in data set [2] (setting [3]) were 129% and 95%, respectively. The compound also came in with an Index in data set [2] of 0.076.
